For this test, the target named is PI3Kα (Homo sapiens, UniProt P42336). Put plainly: cell-free ADP-Glo kinase assay with recombinant PI3Kα and poly-EY substrate. The test is classed as biochemical. A general note: In ADP-Glo the light output rises with the ADP produced.
PI3Kα, sequence (P42336 whole entry): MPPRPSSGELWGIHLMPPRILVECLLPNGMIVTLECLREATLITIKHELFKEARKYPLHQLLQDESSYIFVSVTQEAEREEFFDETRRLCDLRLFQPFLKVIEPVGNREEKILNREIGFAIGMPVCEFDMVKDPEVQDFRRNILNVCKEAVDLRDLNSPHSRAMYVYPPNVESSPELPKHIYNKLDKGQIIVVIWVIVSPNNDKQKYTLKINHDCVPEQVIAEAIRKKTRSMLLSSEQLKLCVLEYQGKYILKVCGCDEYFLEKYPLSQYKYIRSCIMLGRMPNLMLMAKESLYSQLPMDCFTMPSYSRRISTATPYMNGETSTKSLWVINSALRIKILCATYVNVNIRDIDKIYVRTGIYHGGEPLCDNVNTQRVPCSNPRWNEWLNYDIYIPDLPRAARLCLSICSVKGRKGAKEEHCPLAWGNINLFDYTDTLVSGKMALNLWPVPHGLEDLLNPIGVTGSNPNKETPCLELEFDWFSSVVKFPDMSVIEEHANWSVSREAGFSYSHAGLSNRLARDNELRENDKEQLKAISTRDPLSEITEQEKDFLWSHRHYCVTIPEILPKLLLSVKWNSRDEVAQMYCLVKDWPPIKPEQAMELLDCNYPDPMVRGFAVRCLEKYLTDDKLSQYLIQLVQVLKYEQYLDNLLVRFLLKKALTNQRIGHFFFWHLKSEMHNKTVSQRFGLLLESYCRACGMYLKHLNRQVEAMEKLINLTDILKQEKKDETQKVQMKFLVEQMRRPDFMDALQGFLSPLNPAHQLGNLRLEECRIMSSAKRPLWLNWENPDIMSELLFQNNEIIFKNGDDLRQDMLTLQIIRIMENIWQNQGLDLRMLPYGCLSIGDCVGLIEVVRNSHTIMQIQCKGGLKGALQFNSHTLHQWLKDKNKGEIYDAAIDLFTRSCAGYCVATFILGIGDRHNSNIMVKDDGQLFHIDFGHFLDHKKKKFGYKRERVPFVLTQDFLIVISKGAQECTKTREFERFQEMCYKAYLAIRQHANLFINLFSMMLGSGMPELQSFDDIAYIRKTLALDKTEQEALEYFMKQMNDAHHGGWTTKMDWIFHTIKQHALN
PI3Kα, sequence (P27986 2-724, further chain): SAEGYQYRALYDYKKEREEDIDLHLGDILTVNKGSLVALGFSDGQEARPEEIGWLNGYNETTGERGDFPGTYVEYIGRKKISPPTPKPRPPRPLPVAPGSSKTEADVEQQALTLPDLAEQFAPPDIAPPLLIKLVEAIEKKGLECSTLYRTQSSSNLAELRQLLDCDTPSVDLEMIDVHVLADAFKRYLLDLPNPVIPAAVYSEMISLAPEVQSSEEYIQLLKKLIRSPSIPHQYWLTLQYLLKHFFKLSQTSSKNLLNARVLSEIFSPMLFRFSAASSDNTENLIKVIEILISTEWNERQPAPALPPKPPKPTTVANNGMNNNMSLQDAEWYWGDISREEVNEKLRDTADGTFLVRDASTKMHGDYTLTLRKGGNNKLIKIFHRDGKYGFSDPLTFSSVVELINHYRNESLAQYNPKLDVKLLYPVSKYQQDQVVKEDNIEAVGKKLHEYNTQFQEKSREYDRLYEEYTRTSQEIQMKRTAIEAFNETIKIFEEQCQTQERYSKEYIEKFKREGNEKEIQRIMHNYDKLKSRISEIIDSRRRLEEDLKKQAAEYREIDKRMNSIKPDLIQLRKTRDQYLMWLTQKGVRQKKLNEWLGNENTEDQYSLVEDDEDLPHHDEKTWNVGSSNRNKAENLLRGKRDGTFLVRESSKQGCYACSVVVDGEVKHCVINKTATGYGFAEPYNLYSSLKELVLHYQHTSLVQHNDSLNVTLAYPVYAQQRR

Turning to `OCCN1CCN(CC/C=C2/c3ccccc3Sc3ccc(C(F)(F)F)cc32)CC1` [flupentixol], the IC50 (in general, the concentration needed to halve the response being measured) stood at 0.127 ± 0.00587 µM.

For the origin of these results see paper PMC6643147 (International Journal of Biological Sciences, 2019).
